Patent US20250352520A1, “USE OF DEXPRAMIPEXOLE FOR THE TREATMENT OF EOSINOPHILIC COPD” (Areteia Therapeutics, Inc., priority 2024, published 2025)

Conditions: Week 8; <50% AEC reduction at Week 16

CCCN[C@@H]1CCc2nc(N)sc2C1 [Dexpramipexole, (6R)-2-amino-4,5,6,7-tetrahydro-6-(propylamino)benzothiazole]
Pre-BD FEF25-75 % change from baseline, Max: 58%
Pre-BD FEF25-75 % change from baseline, Mean ± SD: 30.4 ± 31.72%
Pre-BD FEF25-75 % change from baseline, Median: 38.4%
Pre-BD FEF25-75 % change from baseline, Min: −14%
Pre-BD FEF25-75 % change from baseline, Q1: 8%
Pre-BD FEF25-75 % change from baseline, Q3: 53%
Pre-BD FEF25-75 Observed, Max: 2050 mL/s
Pre-BD FEF25-75 Observed, Mean ± SD: 875.0 ± 790.55 mL/s
Pre-BD FEF25-75 Observed, Median: 535.0 mL/s
Pre-BD FEF25-75 Observed, Min: 380 mL/s
Pre-BD FEF25-75 Observed, Q1: 410 mL/s
Pre-BD FEF25-75 Observed, Q3: 1340 mL/s
Pre-BD FEF25-75 change from baseline, Max: 660 mL/s
Pre-BD FEF25-75 change from baseline, Mean ± SD: 200.0 ± 324.14 mL/s
Pre-BD FEF25-75 change from baseline, Median: 120.0 mL/s
Pre-BD FEF25-75 change from baseline, Min: -100 mL/s
Pre-BD FEF25-75 change from baseline, Q1: 0 mL/s
Pre-BD FEF25-75 change from baseline, Q3: 400 mL/s
Pre-BD FEV1 % change from baseline, Max: 41%
Pre-BD FEV1 % change from baseline, Mean ± SD: 16.0 ± 19.59%
Pre-BD FEV1 % change from baseline, Median: 13.2%
Pre-BD FEV1 % change from baseline, Min: −4%
Pre-BD FEV1 % change from baseline, Q1: 1%
Pre-BD FEV1 % change from baseline, Q3: 31%
Pre-BD FEV1 Observed, Max: 2940 mL
Pre-BD FEV1 Observed, Mean ± SD: 1755.0 ± 860.79 mL
Pre-BD FEV1 Observed, Median: 1600.0 mL
Pre-BD FEV1 Observed, Min: 880 mL
Pre-BD FEV1 Observed, Q1: 1215 mL
Pre-BD FEV1 Observed, Q3: 2295 mL
Pre-BD FEV1 change from baseline, Max: 860 mL
Pre-BD FEV1 change from baseline, Mean ± SD: 282.5 ± 410.23 mL
Pre-BD FEV1 change from baseline, Median: 165.0 mL
Pre-BD FEV1 change from baseline, Min: -60 mL
Pre-BD FEV1 change from baseline, Q1: -5 mL
Pre-BD FEV1 change from baseline, Q3: 570 mL
Pre-BD FVC % change from baseline, Max: 17%
Pre-BD FVC % change from baseline, Mean ± SD: 4.5 ± 11.70%
Pre-BD FVC % change from baseline, Median: 5.1%
Pre-BD FVC % change from baseline, Min: −9%
Pre-BD FVC % change from baseline, Q1: −5%
Pre-BD FVC % change from baseline, Q3: 14%
Pre-BD FVC Observed, Max: 3990 mL
Pre-BD FVC Observed, Mean ± SD: 3162.5 ± 792.10 mL
Pre-BD FVC Observed, Median: 3175.0 mL
Pre-BD FVC Observed, Min: 2310 mL
Pre-BD FVC Observed, Q1: 2500 mL
Pre-BD FVC Observed, Q3: 3825 mL
Pre-BD FVC change from baseline, Max: 540 mL
Pre-BD FVC change from baseline, Mean ± SD: 167.5 ± 353.02 mL
Pre-BD FVC change from baseline, Median: 185.0 mL
Pre-BD FVC change from baseline, Min: -240 mL
Pre-BD FVC change from baseline, Q1: -120 mL
Pre-BD FVC change from baseline, Q3: 455 mL
Pre-BD Peak Flow % change from baseline, Max: 500%
Pre-BD Peak Flow % change from baseline, Mean ± SD: 136.0 ± 243.51%
Pre-BD Peak Flow % change from baseline, Median: 28.5%
Pre-BD Peak Flow % change from baseline, Min: −13%
Pre-BD Peak Flow % change from baseline, Q1: 4%
Pre-BD Peak Flow % change from baseline, Q3: 268%
Pre-BD Peak Flow Observed, Max: 319 L/min
Pre-BD Peak Flow Observed, Mean ± SD: 227.0 ± 70.68 L/min
Pre-BD Peak Flow Observed, Median: 217.5 L/min
Pre-BD Peak Flow Observed, Min: 154 L/min
Pre-BD Peak Flow Observed, Q1: 175 L/min
Pre-BD Peak Flow Observed, Q3: 280 L/min
Pre-BD Peak Flow change from baseline, Max: 200 L/min
Pre-BD Peak Flow change from baseline, Mean ± SD: 70.5 ± 97.89 L/min
Pre-BD Peak Flow change from baseline, Median: 55.5 L/min
Pre-BD Peak Flow change from baseline, Min: -29 L/min
Pre-BD Peak Flow change from baseline, Q1: -1 L/min
Pre-BD Peak Flow change from baseline, Q3: 142 L/min
